ChEMBL document CHEMBL1201862, “PubChem BioAssay data set” (2004)
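Growth conditions: 96-well plates. Treatment: test compound, 48 hours, 5 concentrations. Analysis: linear interpolation between bracketing concentrations; unreached endpoints set to highest concentration. At the GI50, growth is halved.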 Activity calls are given as the source filed them. No stated cut-off is given here; in the data, active = GI50 up to about 1.1 µM and inactive = higher.

Assays:
Test in all cases: NCI tumour cell line growth inhibition, 48 h
[1] = system: HT-29
[2] = system: 786-0
[3] = system: RXF 393
[4] = system: HCT-116
[5] = system: EKVX
[6] = system: OVCAR-3
[7] = system: TK-10
[8] = system: SK-OV-3
[9] = system: NCI-H226
[10] = system: SNB-75
[11] = system: NCI-H23
[12] = system: SK-MEL-5
[13] = system: UACC-257
[14] = system: CAKI-1
[15] = system: SF-268
[16] = system: OVCAR-5
[17] = system: LOX IMVI

Measured: GI50

Cc1ccc(C)c(N2C(=O)C(=O)C(c3nc4ccccc4o3)C(=O)C2=O)c1
inactive: [1] 49.5 µM | [2] > 100 µM | [3] > 100 µM | [4] 27.1 µM | [5] > 100 µM | [6] 39.4 µM | [7] > 100 µM | [8] > 100 µM | [9] > 100 µM | [10] 95.1 µM | [11] 43.6 µM | [12] 67.5 µM | [13] 32 µM | [14] > 100 µM | [15] > 100 µM

Cc1cccc(C2SCc3nc4ccccc4n32)c1 (stereo unspecified)
inactive: [1] 27.9 µM | [2] 25.1 µM | [3] 14.9 µM | [4] 17.7 µM | [5] 18.9 µM | [6] 17.8 µM | [7] 21.9 µM | [8] 24.7 µM | [9] 24.1 µM | [10] 2 µM | [11] > 10 µM | [12] 14.3 µM | [14] 31 µM | [16] 5.25 µM | [15] 36.7 µM | [17] 28.6 µM

O=Cc1cc(O)c(O)c(O)c1-c1c(C=O)cc(O)c(O)c1O
inactive: [1] > 100 µM | [2] > 100 µM | [4] > 100 µM | [5] > 100 µM | [6] > 100 µM | [7] > 100 µM | [8] > 100 µM | [9] > 100 µM | [10] > 100 µM | [11] > 100 µM | [12] > 100 µM | [13] > 100 µM | [14] > 100 µM | [16] > 100 µM | [15] > 100 µM | [17] > 100 µM

N#CC(N)(C(=O)C(=O)NCCCNC(=O)C(=O)C(N)(C#N)c1ccc(Cl)cc1)c1ccc(Cl)cc1 (stereo unspecified)
inactive: [1] > 100 µM | [2] > 100 µM | [3] > 100 µM | [4] > 100 µM | [5] > 100 µM | [6] > 100 µM | [7] > 100 µM | [8] > 100 µM | [9] > 100 µM | [10] > 100 µM | [11] > 100 µM | [12] > 100 µM | [13] > 100 µM | [14] > 100 µM | [16] > 100 µM | [15] > 100 µM | [17] > 100 µM

CCC1(Cl)C(=O)NC(=O)N(C2CC(O)C(CO)O2)C1N=[N+]=[N-] (stereo unspecified)
inactive: [1] > 100 µM | [2] > 100 µM | [3] 41.2 µM | [5] > 100 µM | [6] > 100 µM | [7] > 100 µM | [8] > 100 µM | [10] > 100 µM | [11] 65.3 µM | [12] > 100 µM | [13] > 100 µM | [14] > 100 µM | [16] > 100 µM | [15] > 100 µM | [17] > 100 µM

CC1=CCC2(C#N)CCC1C2=O (stereo unspecified)
inactive: [1] > 100 µM | [2] > 100 µM | [4] > 100 µM | [5] > 100 µM | [6] > 100 µM | [7] > 100 µM | [8] > 100 µM | [9] > 100 µM | [11] > 100 µM | [12] > 100 µM | [13] > 100 µM | [14] > 100 µM | [16] > 100 µM | [15] > 100 µM | [17] > 100 µM

CC1=C2C(=O)C3[C@@H](CCC4=CC(=O)CC[C@@]43C)C2CC[C@]12O[C@@H]1C[C@H](C)CN[C@H]1[C@H]2C (stereo partly specified)
inactive: [1] 39.8 µM | [2] 43.4 µM | [3] 38.5 µM | [4] 30.6 µM | [5] 49 µM | [6] 45.8 µM | [7] 29.2 µM | [8] > 100 µM | [9] 70.5 µM | [10] 72.8 µM | [11] 37.6 µM | [12] 42.1 µM | [13] 36 µM | [14] > 100 µM | [15] 31.6 µM | [17] 29.6 µM

CCOC(=O)CN(Cc1ccccc1)Cc1c(C(=O)c2ccccc2)c2ccccc2n1C(=O)c1ccccc1
inactive: [1] > 100 µM | [2] > 100 µM | [3] > 10 µM | [4] 32.7 µM | [5] > 100 µM | [6] > 100 µM | [7] > 100 µM | [8] > 100 µM | [9] 60 µM | [10] 18.3 µM | [11] > 100 µM | [12] 96.8 µM | [14] > 100 µM | [16] > 100 µM | [15] > 100 µM | [17] > 100 µM

CC/C(CC(=O)CCC(=O)Nc1c(C)cccc1C)=N\NC(=O)NN
inactive: [1] > 100 µM | [2] > 100 µM | [3] > 100 µM | [4] > 100 µM | [5] > 100 µM | [6] > 100 µM | [7] > 100 µM | [11] > 100 µM | [12] > 100 µM | [13] > 100 µM | [16] > 100 µM | [15] > 100 µM

O=NN(CCCl)C(=O)NCc1ccc[n+]([O-])c1
inactive: [1] > 100 µM | [2] 35.7 µM | [3] > 100 µM | [4] > 100 µM | [5] > 100 µM | [6] > 100 µM | [7] > 100 µM | [8] > 100 µM | [9] > 100 µM | [11] > 100 µM | [12] > 100 µM | [13] > 100 µM | [14] > 100 µM | [16] > 100 µM | [15] 37.2 µM | [17] 70.6 µM

CC1OC(OC2C(OC(=O)[C@]34CCC(C)(C)CC3C3=CCC5[C@@]6(C)C[C@H](O)[C@H](OC7OC(CO)C(O)C(O)C7N)[C@@](C)(C(=O)O)C6CC[C@@]5(C)C3(C)CC4)OCC(O)C2O)C(O)C(O)C1OC1OCC(O)C(O)C1O (stereo partly specified)
inactive: [1] > 100 µM | [2] > 100 µM | [3] > 100 µM | [5] > 100 µM | [6] > 100 µM | [7] > 100 µM | [8] > 100 µM | [9] > 100 µM | [10] > 100 µM | [11] > 100 µM | [12] > 100 µM | [13] > 100 µM | [14] > 100 µM | [16] > 100 µM | [15] > 100 µM | [17] > 100 µM

COC(=O)c1cc2c3ccccc3n(C(C)=O)c2cn1
inactive: [1] > 100 µM | [2] > 100 µM | [3] 43.9 µM | [4] > 100 µM | [5] 51.2 µM | [6] 98.6 µM | [7] 45.8 µM | [8] > 100 µM | [9] > 100 µM | [10] 25.6 µM | [11] 83.4 µM | [12] > 100 µM | [13] > 100 µM | [14] 23.2 µM | [16] > 100 µM | [17] 63.4 µM
